Assay results published in patent publication US5994336A, “Method of inhibiting proliferation of cells by administering an aminosterol compound” (priority 1995, dated 1999).
Entries after “also recorded” stand apart in the source; their conditions may differ.

Columns and labels:
vitelline capillaries = test: Chick embryo vitelline capillary regression assay; format: in vivo
Method: Using the chick embryo vitelline capillaries assay, compounds were tested for their ability to induce capillary regression. Each compound was applied in 0.1 ml of 15% Ficol 400 and PBS onto the embryo, and vascular regression was assessed after 60 minutes.
The 3-day chick embryo consists of an embryonic disc from which numerous vessels emerge and return, forming a "FIG. 8"-shaped structure--the embryo in the center with vascular loops extending outward over both poles. […] Following a lag period of around 15 minutes, the constriction of continuity between capillary and secondary vessels, generally on the "venous" side, was observed. Continued pulsatile blood flow progressed, resulting in a "swelling" of the blind tube, followed by a pinching off of the remaining connection and formation of an enclosed vascular sac resembling a "blood island." This process progressed until only the largest vessels remained intact.

[1] = test system: Xenopus tadpole, stage 59-60; test: Tadpole assay; format: in vivo, Xenopus laevis; settings: 10 μg/ml; for pharmacological response in tadpole (words): stage 59-60
Text: For example, substances that destroy all of the animal's epithelium, both adult and embryonic, could be regarded as toxic.
The volume of liquid is sufficient for the animal to swim freely and drink from the solution. […] If the volume of liquid is not sufficient to permit oral intake, the effects that are observed would result from absorption through the surface epithelium.
In another embodiment of this assay, a solution of a compound in water can be injected directly into the abdomen of the animal using standard techniques.
After an amount of time, typically about 60 minutes, the occlusion of blood flow through capillaries in the tadpole's tail are observed under an inverted microscope at a magnification of roughly 100×.
In the assay, each of the steroids was dissolved in 100 ml of distilled water at a concentration of 10 μg/ml. Stage 59-60 Xenopus tadpoles were introduced and evaluated by light microscopy and gross observation 1 hour later.

B16 melanoma [2] = test: Suppression of growth of B16 melanoma in C57B mice; format: in vivo, mouse; settings: subcutaneous; FIG. 6
Method: The growth of B16 melanoma in C57B mice is dependent upon neovascularization.
Using the growth of B16 melanoma cells in C57B mice, a recognized model for the evaluation of inhibitors of angiogenesis on the growth of cancers, the effects of subcutaneous, intraperitoneal and oral administration of squalamine were evaluated.

NHE = test: Comparison of compound 319 with squalamine
Text: Moreover, other aminosterols have shown anti-angiogenic activity. Compounds were subjected to a various assays, including the chick embryo capillary regression assay, the tadpole assay, the assay for inhibition of endothelial cord formation, and the assay for direct inhibition of NHE, as described above, to determine their utilities. As evident from the above data, correlation among the results from the chick, tadpole and in vitro inhibition of endothelial cell cord formation assays is excellent.
Through the application of these assays, compound 319 emerged as an attractive alternative to squalamine. […] Further properties of compound 319 are discussed below.

rabbit NHE3 [3] = biological target: T1, rabbit NHE3 (Oryctolagus cuniculus, UniProt P26432); settings: existing agents such as amiloride; cited from earlier work
T1 construct: BCECF internal pH recovery
T1 sequence (P26432 30-832): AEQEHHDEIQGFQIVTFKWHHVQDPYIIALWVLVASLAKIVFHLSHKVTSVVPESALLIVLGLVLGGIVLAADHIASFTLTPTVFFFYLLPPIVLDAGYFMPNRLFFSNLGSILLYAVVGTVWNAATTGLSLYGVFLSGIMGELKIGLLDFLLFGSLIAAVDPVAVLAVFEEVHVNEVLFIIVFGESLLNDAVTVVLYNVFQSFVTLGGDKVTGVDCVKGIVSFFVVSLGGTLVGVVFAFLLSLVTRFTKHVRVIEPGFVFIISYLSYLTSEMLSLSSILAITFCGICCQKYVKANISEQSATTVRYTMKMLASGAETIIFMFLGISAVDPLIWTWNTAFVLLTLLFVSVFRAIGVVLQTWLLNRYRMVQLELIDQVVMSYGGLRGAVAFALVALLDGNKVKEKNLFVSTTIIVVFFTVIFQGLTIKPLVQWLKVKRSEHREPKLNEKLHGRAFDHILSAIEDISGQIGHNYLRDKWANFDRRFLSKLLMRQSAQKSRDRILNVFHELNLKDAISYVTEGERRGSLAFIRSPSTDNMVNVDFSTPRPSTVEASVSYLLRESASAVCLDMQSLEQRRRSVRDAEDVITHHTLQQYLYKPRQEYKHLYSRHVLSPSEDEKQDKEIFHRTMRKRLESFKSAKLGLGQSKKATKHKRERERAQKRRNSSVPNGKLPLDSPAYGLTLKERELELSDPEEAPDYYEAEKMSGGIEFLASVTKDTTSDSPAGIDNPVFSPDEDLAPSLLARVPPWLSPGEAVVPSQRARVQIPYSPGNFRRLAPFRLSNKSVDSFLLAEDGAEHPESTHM

NHE1β = settings: nucleated erythrocyte isoform; cited from earlier work
[4] = test system: heart of a juvenile Xenopus laevis frog; test: Persistence of beating of isolated frog heart (ischemia); settings: 10 μg/ml, adrenaline 50 μg/ml, room temperature; about one hour without compound
Method: To determine if compound 1436 has such utility, the following experiment was performed. The heart of a juvenile Xenopus laevis frog was dissected from the living animal. The heart was placed into a Petri dish containing Krebs-Ringer buffer with adrenaline 50 μg/ml, and examined with the naked eye. At room temperature, the heart continued beating in a coordinated fashion (atrial beat followed by ventricular beat) for about one hour. In the presence of 10 μg/ml of compound 1436, spontaneous beating persisted up to 24 hours.

Lewis lung carcinoma = test: Growth inhibition in vitro (Table 7); format: cell-based; settings: 10 μg/ml
Text: (§1) As set forth in Table 7 below, all malignant tumors evaluated in tissue culture, endothelial cells and vascular smooth muscle cells were sensitive to inhibition. Thus, compound 1436 has application in the control of growth factor dependent proliferation of many types of tissue.

[5] = test system: Human coronary artery smooth muscle cells; test: Growth inhibition in vitro (Table 7); format: cell-based; settings: 10 μg/ml
Text: as §1

[6] = test system: bovine pulmonary endothelial cells; test: Growth inhibition in vitro (Table 7); format: cell-based; settings: 10 μg/ml
Text: as §1

Murine B16 melanoma = test: Growth inhibition in vitro (Table 7); format: cell-based; settings: 10 μg/ml
Text: as §1

[7] = test system: Human colon carcinoma SW948; test: Growth inhibition in vitro (Table 7); format: cell-based; settings: 10 μg/ml
Text: as §1

Murine L1210 leukemia = test: Growth inhibition in vitro (Table 7); format: cell-based; settings: 10 μg/ml
Text: as §1

[8] = test system: Human microvascular endothelial cells; test: Growth inhibition in vitro (Table 7); format: cell-based; settings: 10 μg/ml
Text: as §1

[9] = test system: Human colon carcinoma HT29; test: Growth inhibition in vitro (Table 7); format: cell-based; settings: 10 μg/ml
Text: as §1

Human melanoma WM 1617 = test: Growth inhibition in vitro (Table 7); format: cell-based; settings: 10 μg/ml
Text: as §1

[10] = test system: human umbilical venous endothelial cells; test: Growth inhibition in vitro (Table 7); format: cell-based; settings: 10 μg/ml
Text: as §1

[11] = Effect on fasting blood glucose in mice; format: in vivo, mouse; settings: i.v.
Method: To study the effect of steroid administrator or the NHE responsible for secretion of insulin, several of the aminosterols from shark liver were administered to fasting mice. Male CD-1 mice were assigned to one of four treatment groups. Whole blood glucose was tested using glucometer (Lifescan Glucometer II and One Touch test strips). Statistical analysis was via one-way analysis of variance (ANOVA) followed by subsequent Bonferonni's t-test.

[12] = test system: Human ovarian carcinoma SKOV3; test: Growth inhibition in vitro (Table 7); format: cell-based; settings: 10 μg/ml
Method: as §1
Using the assay described above, the anticancer effects of compound 1437 against several cancer lines was assessed.

[13] = test system: human coronary artery smooth muscle; test: Proliferation of human coronary artery smooth muscle in vitro; format: cell-based
Text: Aminosterols of the invention may also have utility in inhibiting the growth factor mediated proliferation of smooth muscle within the artery. Following coronary angioplasty, reocclusion commonly occurs, secondary to reparative proliferation of the vascular smooth muscle within the wall of the surgically manipulated blood vessel. This process generally takes place over the course of 7-10 days. To evaluate whether an agent could prevent the growth factor mediated proliferation of smooth muscle within the artery, compound 1436 was evaluated in vitro for its effect on the proliferation of human coronary artery smooth muscle. Results for compound 1436 are shown in FIG. 13, and those for squalamine are shown in FIG. 14, with FIG. 15 being a composite logarithmic plot.

[14] = Effect on growth and weight gain of C57B mice; format: in vivo, mouse
Method: Animals were dosed QTD (i.p.) starting on Day 1. […] Animals receiving 5 mg/kg QTD experienced about a 50% reduction in growth, compared to untreated controls, while animals receiving 1 mg/kg QTD were affected by about 10%. […] They appeared very much like hypophysectamized animals might appear.

[15] = Effect on arterial resistance in the rat after i.v. administration; format: in vivo
Method: A 200-g rat was catheterized in the right carotid artery, and the compound was introduced over a ten-second period to a total dosage of 5 mg/kg. Within 30 seconds, the mean arterial pressure had fallen from about 100 mm Hg to about 70 mm Hg, with a marked reduction in pulse pressure from about 40 mm to about 10 mm. […] If cardiac output was basically unaffected, reduction in blood pressure would have resulted principally from a reduction in system resistance.
At that time, 40 μg of noradrenaline was introduced.

[16] = test system: L1210 lymphoblastic leukemia; test: Survival of mice bearing L1210 leukemia
rabbit NHE3 [17] = biological target: T1, rabbit NHE3; format: cell-based; settings: 10 μg/ml, acid preloaded; FIG. 10
[18] = test system: PHA-stimulated human lymphocytes; test: Inhibition of mitogen (PHA)-stimulated growth of human T-cells; format: cell-based
Text: Results are tabulated below.

B16 melanoma [19] = test: Synergistic inhibition of tumor growth, B16 melanoma model; format: in vivo, mouse
Method: Based on the idea that tumor growth involves both the clonal expansion of a malignant cell along with the development of a supporting vascular supply, a combination of compound 1436 with squalamine was tested to determine whether it would achieve a synergistic effect on solid tumor growth. This concept was evaluated in the B16 melanoma model.
Animals were implanted with B16 melanoma followed by treatment with compound 1436 or 1256 administered in a combined schedule or separately. […] Thus, a combination of these two compounds achieves a therapeutic benefit in tumors dependent on neovascularization that may prevent metastatic spread.

human melanoma = test: Effect on growth of human melanoma (method of Baker et al.); format: cell-based; settings: FIG. 17A
[20] = Hematological profile of L1210-inoculated mice
Text: C57B mice were inoculated with L1210 lymphoblastic leukemia cells at an inoculum that causes leukemia in 100% of animals.

SMILES: C[C@H](CCC(=O)O)[C@H]1CC[C@H]2[C@@H]3CC[C@H]4C[C@@H](NCCCNCCCCN)CC[C@]4(C)[C@H]3CC[C@]12C [Compound 319]
- activity on vitelline capillaries (vitelline capillaries): especially active
- pharmacological response in tadpole (words) [1]: common vascular occlusive effect
- control of B16 melanoma (B16 melanoma [2]): control of B16 in C57B mice to an extent almost comparable to squalamine
- potency as an NHE inhibitor compared with squalamine (NHE): superior to squalamine

SMILES: N=C(N)NC(=O)c1nc(Cl)c(N)nc1N [Amiloride]
- effect on Vmax of NHE3 (existing agents) (rabbit NHE3 [3]): affected only Vmax
- inhibition of NHE1β (NHE1β): inhibited by high concentrations

SMILES: CC(C)[C@@H](CC[C@@H](C)[C@H]1CC[C@H]2[C@@H]3[C@H](O)C[C@H]4C[C@@H](NCCCNCCCCNCCCN)CC[C@]4(C)[C@H]3CC[C@]12C)OS(=O)(=O)O [Compound 1436]
- persistence of spontaneous beating [4]: up to 24 hours
- inhibition in vitro (Lewis lung carcinoma): INHIBITED
- inhibition in vitro [5]: INHIBITED
- inhibition in vitro [6]: INHIBITED
- inhibition in vitro (Murine B16 melanoma): INHIBITED
- inhibition in vitro [7]: INHIBITED
- inhibition in vitro (Murine L1210 leukemia): INHIBITED
- inhibition in vitro [8]: INHIBITED
- inhibition in vitro [9]: INHIBITED
- inhibition in vitro (Human melanoma WM 1617): INHIBITED
- inhibition in vitro [10]: INHIBITED
- blood glucose effect [11]: caused hyperglycemia in mice
- inhibition in vitro [12]: INHIBITED
- suppression of growth in vitro ([13]; FIG. 15): suppress in vitro the growth of human coronary artery smooth muscle
- viability at quiescent concentration ([13]; about 11 μg/ml): without loss of viability
- reduction in growth ([14]; 5 mg/kg QTD i.p., compared to untreated controls): ~50%
- reduction in growth ([14]; 10 mg/kg QTD i.p.): almost completely inhibited
- apparent health of treated animals ([14]; i.p.): all were active, normally proportioned, not-cachectic, and in excellent apparent clinical health
- activity on vitelline capillaries (vitelline capillaries): causes vitelline capillary regression with about the same potency as squalamine
- tissues or functions not affected in tadpole [1]: No effects are observed on epithelial cell integrity, vascular flow, erythrocyte volume, tissue integrity, muscle fiber striation, or GI tract activity
- pharmacological response in tadpole (words) [1]: Gradual reduction in overall activity. Heart beat remained strong, suggesting nervous system depression. Melanocytes over head and tail began to swell, first exhibiting visibly distinct nuclei, followed by rupture into fragments
- pharmacological response in tadpole (words) ([1]; listed as compound 1436): common vascular occlusive effect; also recorded: dramatic disruption of melanocytes over its head, trunk, and tail, along with depression of its nervous system
- reversibility ([15]; 40 μg noradrenaline at 30 minutes): readily reversible
- pulse pressure after dose ([15]; 5 mg/kg i.v., within 30 seconds, from about 40 mm): about 10 mm
- mean arterial pressure after dose ([15]; 5 mg/kg i.v., within 30 seconds, from about 100 mm Hg): about 70 mm Hg
- persistence of pressure effect ([15]; followed for 30 minutes): without significant change
- survival ([16]; highest dose, 10 mg/kg every 3 days i.p., FIG. 11): significant prolongation of life
- toxicity in leukemic mice ([16]; mouse, in vivo): without unfavorable toxicity
- inhibition of rabbit NHE3 (rabbit NHE3 [17]): found to inhibit rabbit NHE3
- inhibition of blast transformation [18]: inhibited blast transformation most potently
- effect compared with combination (B16 melanoma [19]; compound 1436 alone in a tolerable schedule): Neither administration of squalamine at 15 mg/kg/day nor compound 1436 alone in a tolerable schedule could achieve this effect
- impact on tumor volume (B16 melanoma [19]; compound 1436 alone, 10 mg/kg/every 3 days, FIG. 12): no significant impact on tumor volume

SMILES: CC(C)CCC[C@@H](C)[C@H]1CC[C@H]2[C@@H]3CC[C@H]4C[C@@H](NCCCNCCCCNCCCN)CC[C@]4(C)[C@H]3CC[C@]12C [Compound 353]
- activity on vitelline capillaries (vitelline capillaries): no effect on the chick embryo capillary bed
- pharmacological response in tadpole (words) [1]: effects like those produced by compound 1436
- time course of effect on growth of melanoma (human melanoma): most pronounced over 48 hours, with less of an effect noted within the first 12 hours of incubation

SMILES: N.N.[Cl][Pt][Cl] [Cisplatin]
- hematological profile [20]: profound anemia by day 28
